Source: BindingDB's records for doi:10.1016/j.bmcl.2010.12.109 (Ono Pharmaceutical, 2011)
Counter-ions that a name gives are not always drawn.

Assay: Antagonist activity at human CCR5 expressed in HOS cells assessed as inhibition of cell fusion with HIV gp120 expressing HEK293 cells by LTR luciferase assay

With `CCCCN1C(=O)[C@@H]([C@H](O)C(C)C)NC(=O)C12CCN(Cc1ccc(Oc3ccccc3)cc1)CC2` [(R)-1-butyl-3-((R)-1-hydroxy-2-methyl-propyl)-9-(4-phenoxy-benzyl)-1,4,9-triaza-spiro[5.5]undecane-2,5-dione hydrochloride] the IC50 was 0.229 µM.
For `CCCCN1C(=O)C(CC(C)C)NC(=O)C12CCN(Cc1ccc(Oc3ccccc3)cc1)CC2` (stereo not drawn) [rac-1-Butyl-3-isobutyl-9-(4-phenoxybenzyl)-1,4,9-triazaspiro[5.5]undecane-2,5-dione hydrochloride], the IC50 was 0.851 µM.
